Experimental data as given in patent US20060088502A1, “Drug for reducing side effects in ribavirin interferon combination therapy” (priority 2003, published 2006).
Marks after values point to notes of the source that are not given here.

System: patients with chronic hepatitis C who had developed anemia due to ribavirin/IFN α combination therapy
Assay type: in vivo, human
Conditions: average of 6 cases; p < 0.05 vs. before EPA administration (10.8 g/dL)
Protocol: After the onset of anemia, each patient received 600 mg of EPA-E (trade name: Epadel, manufactured by Mochida Pharmaceutical Co., Ltd.) three times a day by oral administration every after meal for 2 months. Depending on the disease cases, the time of starting the administration of EPA-E varied within the range from 1 to 4 months after the start of administration of ribavirin/IFN α. In the ribavirin/IFN α combination therapy, ribavirin (trade name: Rebetol, manufactured by Schering-Plough Corporation) was orally administered to each patient of over 60 kg in body weight at a dose of 400 mg every after morning meal and every after evening meal as well, and to each patient of 60 kg or less at a dose of 200 mg every after morning meal and 400 mg every after evening meal. Simultaneously, 6 million IU a day of IFN α-2b (trade name: Intron A, manufactured by Schering-Plough Corporation) was intramuscularly administered everyday for two weeks, followed by intermittent administration of three times a week for 22 weeks.

## CC/C=C\C/C=C\C/C=C\C/C=C\C/C=C\CCCC(=O)OCC [EPA, eicosapentaenoic acid ethyl ester]
  Hemoglobin level, average, after EPA administration for one month: 11.4* g/dL
  Hemoglobin level, average, after EPA administration for two months: 11.5* g/dL
